Patent US12441704B2, “Compounds active towards nuclear receptors” (NUEVOLUTION A/S, priority 2019, dated 2025)

biological target: T1, RORγ ligand-binding domain fused to Gal4 (Homo sapiens, UniProt P51449); assay: RORγ Reporter Assay (Gal4); format: cell-based; conditions: HEK293 cells co-transfected with RORγ LBD-Gal4 and luciferase reporter; 24 h incubation; absolute EC50; read-out: EC50
T1 construct: Gal4 (galactose-responsive transcription factor); expressed in transfected cells; host or cells: HEK293
T1 sequence (P51449 269-508 limits assumed): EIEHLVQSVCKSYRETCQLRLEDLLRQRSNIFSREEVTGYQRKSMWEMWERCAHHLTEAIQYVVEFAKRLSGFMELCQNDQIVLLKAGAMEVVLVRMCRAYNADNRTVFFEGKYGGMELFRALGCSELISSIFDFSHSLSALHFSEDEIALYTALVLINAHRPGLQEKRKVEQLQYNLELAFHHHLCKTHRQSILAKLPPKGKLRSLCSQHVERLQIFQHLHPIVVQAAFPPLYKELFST
Procedure: The HEK293 cell line is co-transfected transiently with two plasmids, one with the RORγ ligand-binding domain fused to galactose-responsive transcription factor (Gal4), and the other with the luciferase reporter gene and Gal binding sites (UAS). This construction allows to determine the RORγ activity in a cellular system through the measurement of luminescence.
A suspension of RORγ reporter cells was dispensed into plates and cultured 2 h at 37° C. and 5% CO2. Media formulation consisted in DMEM/F-12 medium (Gibco) supplemented with 10% heat inactivated FBS (Sigma-Aldrich), non-essential aminoacids (Sigma-Aldrich), 2 mM Glutamax (Gibco) and 100 U/mL penicillin (Sigma-Aldrich). Dose-response curves with compounds were prepared in 100% DMSO and further diluted 100-fold in culture medium. Compound solutions were added to the plate containing cells (final DMSO concentration of 0.1%) and incubated for 24 h at 37° C. and 5% CO2. Luciferase detection reagent was added to each well, and relative light units (RLUs) were quantified from each assay well using a plate reading luminometer.
Values of average RLU±S.D. were computed for all treatment sets, followed by the calculations of percent-reduction of RORγ activity in response to respective test compound. The following formula was used: activity=100*[1−[x test compound/average vehicle] where the theoretical minimum reduction (0% reduction).

Row | Structure (SMILES) | EC50
1 | NC(=O)CN1CC[C@H](CNc2ncnc(N(Cc3ccc(C(F)(F)F)cc3F)C3CC3)c2F)[C@@H](O)C1 (single isomer, unassigned) [Example A7-22-2] | 3.4 nM
2 | NC(=O)CN1CC[C@H](CNc2ncnc(N(Cc3cnc(C(F)(F)F)nc3)C3CCC3)c2F)[C@@H](O)C1 (single isomer, unassigned) [Example A7-18-1] | 140 nM
3 | NC(=O)CN1CCC(CNc2ncnc(N(Cc3ccc4c(c3)OCC(=O)N4)C3CC3)c2F)CC1 [Example A7-37] | 670 nM
4 | NC(=O)CN1CC[C@@H](CNc2ncnc(N(Cc3ccc(C(F)(F)F)nc3)C3CCC3)c2F)[C@H](O)C1 (single isomer, unassigned) [Example A7-23-1] | 81 nM
5 | CC(F)(F)c1ccc(CN(c2ncnc(NC[C@@H]3CCN(CC(N)=O)C[C@H]3O)c2F)C2CC2)cn1 (single isomer, unassigned) [Example A7-29-1] | 35 nM
6 | NC(=O)CN1CCC(N)(CNc2ncnc(N(Cc3ccc(C(F)(F)F)cc3)C3CC3)c2F)CC1 [Example E6-1, 2-(4-Amino-4-(((6-(cyclopropyl(4-(trifluoromethyl)benzyl)amino)-5-fluoropyrimidin-4-yl)amino)methyl)piperidin-1-yl)acetamide] | 150 nM
7 | NC(=O)CN1CC[C@H](CNc2ncnc(N(Cc3cnc(C(F)(F)F)nc3)C3CCC3)c2F)[C@@H](O)C1 (single isomer, unassigned) [Example A7-18-2] | 82 nM
8 | N#Cc1cccc(CN(c2ncnc(NCC3CCN(CC(N)=O)CC3)c2F)C2CC2)c1 [Example A7-36, 2-(4-(((6-((3-cyanobenzyl)(cyclopropyl)amino)-5-fluoropyrimidin-4-yl)amino)methyl)piperidin-1-yl)acetamide] | 860 nM
9 | CC(C)N(Cc1ccc(C(F)(F)F)cc1)c1ncnc(NC[C@H]2CCN(CC(N)=O)C[C@@H]2O)c1F (racemic) [Example A7-19, rac-2-((3R,4R)-4-(((5-fluoro-6-(isopropyl(4-(trifluoromethyl)benzyl)amino)pyrimidin-4-yl)amino)methyl)-3-hydroxypiperidin-1-yl)acetamide] | 42 nM
10 | CCN(Cc1ccc(-c2cnn(CCO)c2)cc1)c1ncnc(NC[C@@H]2CCN(CC(N)=O)C[C@H]2O)c1F (racemic) [Example A7-73, rac-2-((3R,4R)-4-(((6-(ethyl(4-(1-(2-hydroxyethyl)-1H-pyrazol-4-yl)benzyl)amino)-5-fluoropyrimidin-4-yl)amino)methyl)-3-hydroxypiperidin-1-yl)acetamide] | 99 nM
11 | CC1CC(CNc2ncnc(N(Cc3ccc(C(F)(F)F)cc3)C3CC3)c2F)CCN1CC(N)=O (stereo not shown) [Example A7-48] | 17 nM
12 | NC(=O)CN1CC[C@@H](CNc2ncnc(N(Cc3ccc(OC(F)F)cc3F)C3CCC3)c2F)[C@H](O)C1 (single isomer, unassigned) [Example A7-15-1] | 51 nM
13 | Cc1ccc(C)c(CN(c2ncnc(NCC3CCN(CC(N)=O)CC3)c2F)C2CC2)c1 [Example A7-47, 2-(4-(((6-(cyclopropyl(2,5-dimethylbenzyl)amino)-5-fluoropyrimidin-4-yl)amino)methyl)piperidin-1-yl)acetamide] | > 1000 nM
14 | NC(=O)CN1CCC(F)(CNc2ncnc(N(Cc3ccc4c(c3)OCC(=O)N4)C3CC3)c2F)CC1 [Example A7-12] | 150 nM
15 | NC(=O)CN1CC[C@H](CNc2ncnc(N(Cc3ccc(C(F)F)nc3)C3CC3)c2F)[C@@H](O)C1 (stereo in doubt) [Example A7-25-2, rel-2-((3R,4R)-4-(((6-(cyclopropyl((6-(difluoromethyl)pyridin-3-yl)methyl)amino)-5-fluoropyrimidin-4-yl)amino)methyl)-3-hydroxypiperidin-1-yl)acetamide] | 320 nM
16 | NC(=O)CN1CC[C@H](CNc2ncnc(N(Cc3cnc(C(F)(F)F)nc3)C3CCC3)c2F)[C@@H](O)C1 (racemic) [Example A7-18, rac-2-((3R,4R)-4-(((6-(cyclobutyl((2-(trifluoromethyl)pyrimidin-5-yl)methyl)amino)-5-fluoropyrimidin-4-yl)amino)methyl)-3-hydroxypiperidin-1-yl)acetamide] | 130 nM
17 | Cn1cnnc1C1(CNc2ncnc(N(Cc3ccc(C(F)(F)F)cc3)C3CC3)c2F)CCN(CC(N)=O)CC1 [Example A7-83, 2-(4-(((6-(Cyclopropyl(4-(trifluoromethyl)benzyl)amino)-5-fluoropyrimidin-4-yl)amino)methyl)-4-(4-methyl-4H-1,2,4-triazol-3-yl)piperidin-1-yl)acetamide] | > 1000 nM
18 | CC(C)N(Cc1ccc(C(F)(F)F)cc1)c1ncnc(NC[C@H]2CCN(CC(N)=O)C[C@@H]2O)c1F (relative stereo) [Example A7-19-1, rel-2-((3R,4R)-4-(((5-fluoro-6-(isopropyl(4-(trifluoromethyl)benzyl)amino)pyrimidin-4-yl)amino)methyl)-3-hydroxypiperidin-1-yl)acetamide] | 40 nM
19 | NC(=O)CN1CC[C@H](CNc2ncnc(N(Cc3ccc(OC(F)F)cc3F)C3CCC3)c2F)[C@@H](O)C1 (stereo in doubt) [Example A7-15-2, rel-2-((3R,4R)-4-(((6-(cyclobutyl(4-(difluoromethoxy)-2-fluorobenzyl)amino)-5-fluoropyrimidin-4-yl)amino)methyl)-3-hydroxypiperidin-1-yl)acetamide] | 310 nM
20 | NC(=O)CN1CC[C@@H](CNc2ncnc(N(CCF)Cc3ccc(C(F)(F)F)cc3)c2F)[C@H](O)C1 (racemic) [Example A7-30, rac-2-((3R,4R)-4-(((5-fluoro-6-((2-fluoroethyl)(4-(trifluoromethyl)benzyl)amino)pyrimidin-4-yl)amino)methyl)-3-hydroxypiperidin-1-yl)acetamide] | > 1000 nM
21 | NC(=O)CN1CCC(CNc2ncnc(N(Cc3cccc(-n4cncn4)c3)C3CC3)c2F)CC1 [Example A7-38, 2-(4-(((6-((3-(1H-1,2,4-triazol-1-yl)benzyl)(cyclopropyl)amino)-5-fluoropyrimidin-4-yl)amino)methyl)piperidin-1-yl)acetamide] | 590 nM
22 | Cc1cc(CN(c2ncnc(NCC3CCN(CC(N)=O)CC3)c2F)C2CC2)c(C)cc1Cl [Example A7-46, 2-(4-(((6-((4-chloro-2,5-dimethylbenzyl)(cyclopropyl)amino)-5-fluoropyrimidin-4-yl)amino)methyl)piperidin-1-yl)acetamide] | > 1000 nM
23 | NC(=O)CN1CCC(CNc2ncnc(N(Cc3ccc(C(F)(F)F)cc3)C3CC3)c2F)C(C(F)(F)F)C1 (single isomer, unassigned) [Example A7-07-1, 2-(4-(((6-(cyclopropyl(4-(trifluoromethyl)benzyl)amino)-5-fluoropyrimidin-4-yl)amino)methyl)-3-(trifluoromethyl)piperidin-1-yl)acetamide] | 49 nM
24 | CC(F)(F)c1ccc(CN(c2ncnc(NC[C@H]3CCN(CC(N)=O)C[C@@H]3O)c2F)C2CC2)cn1 (relative stereo) [Example A7-29-2, rel-2-((3R,4R)-4-(((6-(cyclopropyl((6-(1,1-difluoroethyl)pyridin-3-yl)methyl)amino)-5-fluoropyrimidin-4-yl)amino)methyl)-3-hydroxypiperidin-1-yl)acetamide] | 70 nM
25 | CCN(Cc1ccc(C(F)(F)F)cn1)c1ncnc(NC[C@@H]2CCN(CC(N)=O)C[C@H]2O)c1F (racemic) [Example A7-27, rac-2-((3R,4R)-4-(((6-(ethyl((5-(trifluoromethyl)pyridin-2-yl)methyl)amino)-5-fluoropyrimidin-4-yl)amino)methyl)-3-hydroxypiperidin-1-yl)acetamide] | 540 nM
26 | NC(=O)CN1CCC(CNc2ncnc(N(Cc3ccc(C(F)(F)F)cn3)C3CC3)c2F)CC1 [Example A7-35, 2-(4-(((6-(cyclopropyl((5-(trifluoromethyl)pyridin-2-yl)methyl)amino)-5-fluoropyrimidin-4-yl)amino)methyl)piperidin-1-yl)acetamide] | 310 nM
27 | NC(=O)C(CO)N1CCC(CNc2ncnc(N(Cc3ccc(C(F)(F)F)cc3)C3CC3)c2F)CC1 (stereo not shown) [Example A7-64, 2-(4-(((6-(cyclopropyl(4-(trifluoromethyl)benzyl)amino)-5-fluoropyrimidin-4-yl)amino)methyl)piperidin-1-yl)-3-hydroxypropanamide] | 73 nM

same assay, conditions: compounds of the present disclosure; source: Table 2 herein; read-out: Gal4 assay EC50

Row | Structure (SMILES) | EC50
28 | NC(=O)CN1CCC(CO)(CNc2ncnc(N(Cc3ccc(C(F)(F)F)cc3)C3CC3)c2F)C(O)C1 (single isomer, unassigned) [Example C4-1-2, 2-(4-(((6-(Cyclopropyl(4-(trifluoromethyl)benzyl)amino)-5-fluoropyrimidin-4-yl)amino)methyl)-3-hydroxy-4-(hydroxymethyl)piperidin-1-yl)acetamide] | < 100 nM
